Experimental data as given in patent US8519110B2, “mRNA cap analogs” (Board of Supervisors of Louisiana State University And …, priority 2008, dated 2013).

Experiments:
[1] = test system: rabbit reticulocyte lysate system; test: In vitro translation efficiency of capped luciferase mRNA with 31-base poly(A) tail, method II transcripts; type: biochemical; conditions: for In vitro translational efficiency (method II): Table 3, relative to m^7GpppG-capped mRNA = 1.0; for Translation efficiency in comparison to m^7GpppG-LUC-(A)31 mRNA, Experiment No. 1: experiment 1; for Translation efficiency in comparison to m^7GpppG-LUC-(A)31 mRNA, Experiment No. 2: experiment 2; for Translation efficiency in comparison to m^7GpppG-LUC-(A)31 mRNA, Experiment No. 3: experiment 3; for Translation efficiency in comparison to m^7GpppG-LUC-(A)31 mRNA, Experiment No. 4: experiment 4; for Translation efficiency in comparison to m^7GpppG-LUC-(A)31 mRNA, Mean: mean of experiments; for Translation efficiency in comparison to m^7GpppG-LUC-(A)31 mRNA, Experiment No. 5: experiment 5
Summary of the method: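 Cap-analog-primed SP6 transcripts (β-globin 5′-UTR, firefly luciferase, 31-A tail; 0.5 mM cap analog, 0.1 mM GTP) were translated in nuclease-treated rabbit reticulocyte lysate for 60 min at 30° C at 0.25–4 μg/ml mRNA. Efficiency is the slope of luciferase activity versus mRNA concentration, relative to m^7GpppG-capped mRNA (1.0).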

eIF4E = eIF4E (Mus musculus, UniProt P63073); test: Binding affinity of cap analogs to eIF4E by fluorescence titration; conditions: equilibrium association constant; for Cap analog-eIF4E affinity (KAS): Table 3; for Cap analog/eIF4E affinity (KAS): 20 °C, pH 7.2, ionic strength 150 mM
Sequence of eIF4E (P63073 28-217 limits assumed): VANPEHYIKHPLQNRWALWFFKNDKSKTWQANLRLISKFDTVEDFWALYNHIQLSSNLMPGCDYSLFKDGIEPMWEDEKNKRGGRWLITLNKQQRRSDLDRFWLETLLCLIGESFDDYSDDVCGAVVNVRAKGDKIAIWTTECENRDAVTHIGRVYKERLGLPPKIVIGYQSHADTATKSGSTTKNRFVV
Summary of the method: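 Cap analogue was titrated into 0.1 or 0.2 μM eIF4E at 20.0° C, in 50 mM HEPES/KOH pH 7.2 with 0.5 mM EDTA and 1 mM DTT, ionic strength 150 mM (KCl). Fluorescence quenching was read at excitation 280 or 295 nm and emission 337 nm, corrected for dilution and inner filter. Kas is a weighted average of 3–10 titration fits.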

Human DcpS = biological target: T1, Human DcpS (Homo sapiens, UniProt Q96C86); test: Assay of susceptibility to DcpS (RP HPLC); type: biochemical
T1 construct: made in house; host or cells: Escherichia coli
T1 sequence (Q96C86 1-337): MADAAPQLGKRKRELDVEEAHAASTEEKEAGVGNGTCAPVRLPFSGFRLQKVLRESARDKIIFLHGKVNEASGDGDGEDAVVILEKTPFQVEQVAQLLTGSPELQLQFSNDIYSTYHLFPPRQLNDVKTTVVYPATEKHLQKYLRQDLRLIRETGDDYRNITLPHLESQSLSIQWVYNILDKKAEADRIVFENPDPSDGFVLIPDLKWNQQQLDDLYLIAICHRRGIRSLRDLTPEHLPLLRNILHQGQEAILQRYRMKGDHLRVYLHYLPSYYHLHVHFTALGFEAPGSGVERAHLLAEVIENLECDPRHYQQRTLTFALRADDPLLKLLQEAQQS
Summary of the method: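 E. coli-expressed human DcpS reacted with 40 μM cap analog at 30° C in 50 mM Tris-HCl pH 7.9, 20 mM MgCl2, 60 mM (NH4)2SO4. Samples taken at 10, 30, 60 and 120 min, heat-inactivated, and analysed by RP HPLC (methanol gradient in 0.1 M KH2PO4 pH 6.0).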

[2] = 40 μM cap analog, 30° C., up to 120 min

Compound	In vitro translational efficiency (method II) [1]	Translation efficiency in comparison to m^7GpppG-LUC-(A)31 mRNA, Experiment No. 1 [1]	Translation efficiency in comparison to m^7GpppG-LUC-(A)31 mRNA, Experiment No. 2 [1]	Translation efficiency in comparison to m^7GpppG-LUC-(A)31 mRNA, Experiment No. 3 [1]	Translation efficiency in comparison to m^7GpppG-LUC-(A)31 mRNA, Experiment No. 4 [1]	Translation efficiency in comparison to m^7GpppG-LUC-(A)31 mRNA, Mean [1]	Cap analog-eIF4E affinity (KAS) (eIF4E)	Susceptibility to DcpS (Human DcpS; Table 3)	Translation efficiency in comparison to m^7GpppG-LUC-(A)31 mRNA, Experiment No. 5 [1]	Cap analog/eIF4E affinity (KAS) (eIF4E)	Susceptibility to DcpS (Human DcpS; [2])
CO[C@@H]1[C@H](O)[C@@H](COP(=O)(O)OP(O)(=[Se])OP(=O)(O)OC[C@H]2O[C@@H](n3cnc4c(=O)[nH]c(N)nc43)[C@H](O)[C@@H]2O)O[C@H]1n1c[n+](C)c2c(=O)[nH]c(N)nc21 (single isomer, unassigned) [m2^7,2′-OGppSepG (D1), m2^7,2′-OGppSepG]	2.24 ± 0.28	2.05	2.09	2.16	2.65	2.24	38.5 ± 0.7 μM^−1	hydrolyzed	–	–	–
CO[C@@H]1[C@H](O)[C@@H](COP(=O)(O)OP(O)(=[Se])OP(=O)(O)OC[C@H]2O[C@@H](n3cnc4c(=O)[nH]c(N)nc43)[C@H](O)[C@@H]2O)O[C@H]1n1c[n+](C)c2c(=O)[nH]c(N)nc21 (single isomer, unassigned) [m2^7,2′-OGppSepG (D2), m2^7,2′-OGppSepG]	2.31 ± 0.22	2.53	2.31	2.09	–	2.31	19.0 ± 0.5 μM^−1	hydrolyzed	–	–	–
Cn1c[n+]([C@@H]2O[C@H](COP(=O)(O)OP(=O)(O)OP(=O)(O)OC[C@H]3O[C@@H](n4cnc5c(=O)[nH]c(N)nc54)[C@H](O)[C@@H]3O)[C@@H](O)[C@H]2O)c2nc(N)[nH]c(=O)c21 [m^7GpppG, m^7G(5′)ppp(5′)G, reference compound]	1.00	1.00	1.00	1.00	1.00	1.00	9.4 ± 0.4 μM^−1	hydrolyzed	1.00	9.4 ± 0.4 μM^−1	hydrolyzed
m^7GppBH3pm^7G	–	–	–	–	–	3.56	–	–	3.56	11.1 ± 0.2 μM^−1	resistant
